From BigSolDB 2.1

O=[N+]([O-])c1cc(F)c(F)cc1[N+](=O)[O-]
solubility (mole fraction)
Details | 293.15 K | 298.15 K | 303.15 K | 308.15 K | 313.15 K | 318.15 K | 323.15 K | 328.15 K | 333.15 K
in 1,2-dichloroethane | 0.000981 | 0.00112 | 0.00128 | 0.00171 | 0.00229 | 0.00314 | 0.00416 | 0.00553 | 0.00752
in benzene | 0.00143 | 0.00152 | 0.00173 | 0.00216 | 0.00286 | 0.00384 | 0.00499 | 0.00647 | 0.0086
in chloroform | 0.000875 | 0.000957 | 0.00111 | 0.00156 | 0.00237 | 0.00339 | 0.00456 | 0.00611 | –
in ethanol | 0.00011 | 0.00014 | 0.000166 | 0.000246 | 0.000339 | 0.00047 | 0.000662 | 0.000906 | 0.00121
in ethyl acetate | 0.0019 | 0.00215 | 0.00241 | 0.0028 | 0.00342 | 0.00433 | 0.00554 | 0.00735 | 0.00951
in ethyl formate | 0.00271 | 0.00284 | 0.00303 | 0.00339 | 0.00402 | 0.00493 | 0.00613 | 0.00775 | 0.01
in isopropanol | 3.1e-05 | 5e-05 | 6.4e-05 | 8.9e-05 | 0.000123 | 0.000164 | 0.000215 | 0.000296 | 0.00038
in m-xylene | 0.00176 | 0.00206 | 0.00248 | 0.00303 | 0.00368 | 0.00444 | 0.00531 | 0.0062 | 0.00722
in mesitylene | 0.00238 | 0.00259 | 0.00279 | 0.00309 | 0.00348 | 0.00397 | 0.00459 | 0.0055 | 0.00652
in methanol | 0.00019 | 0.000263 | 0.000324 | 0.000401 | 0.000504 | 0.000632 | 0.000774 | 0.000956 | 0.00121
in n-butanol | 3.8e-05 | 6e-05 | 9.5e-05 | 0.000142 | 0.000198 | 0.000278 | 0.000384 | 0.000546 | 0.000785
in n-propanol | 4.5e-05 | 6.1e-05 | 8.5e-05 | 0.00012 | 0.000186 | 0.000278 | 0.000413 | 0.000595 | 0.00083
in o-xylene | 0.00213 | 0.00236 | 0.00277 | 0.00327 | 0.00377 | 0.00441 | 0.00513 | 0.00598 | 0.00701
in p-xylene | 0.00172 | 0.00199 | 0.00228 | 0.00267 | 0.00323 | 0.00395 | 0.00494 | 0.00647 | 0.0085
in tetrachloromethane | – | 2.2e-05 | 4.7e-05 | 9.5e-05 | 0.000168 | 0.000276 | 0.000426 | 0.000614 | 0.000854
in toluene | 0.00135 | 0.00154 | 0.00201 | 0.00268 | 0.00349 | 0.00448 | 0.00551 | 0.00669 | 0.00781
